# Measured values from article PMC12113347, “Compound 3d Attenuates Metabolic Dysfunction-Associated Steatohepatitis via Peroxisome Proliferator-Activated Receptor Pathway Activation and Inhibition of Inflammatory and Apoptotic Signaling” (Metabolites, 2025).
# Legend:
# [1] = In vitro stability in DMEM medium, simulated gastric fluid and simulated intestinal fluid (HPLC); format: in vitro ADME; conditions: 40 μM, 37 °C
# Protocol: Elafibranor and 3d (40 μM) were dissolved in DMEM medium, as well as in simulated gastric fluid (SGF) and simulated intestinal fluid (SIF), respectively, at 37 °C. The concentration of the compounds was determined within 24 h by HPLC. The HPLC conditions comprised an ACQUITY UPLC BEH C18 column maintained at 40 °C with a mobile phase consisting of 20% ultrapure water and 80% acetonitrile, with a flow rate of 1 mL/min at 360 nm.
# [2] = Pharmacokinetics of 3d in male SD rats, tail vein injection; format: in vivo; conditions: 30 mg/kg; for half-life: SD, iv
# Protocol: (§1) The pharmacokinetics of 3d in vivo were evaluated using male SD rats. Following a 12 h fast, the rats were administered 3d (30 mg/kg) via gavage or tail vein injection, respectively, and blood samples were collected within 24 h for analysis of 3d blood concentration via HPLC. The PK parameters were calculated using the DAS 3.0, and oral bioavailability (F) was obtained by the following formula.F = AUCpo × Di.v/AUCi.v × Dpo × 100%(1)
# PPAR-related proteins = experiment: Western blotting of PPAR-related proteins in FFA-stimulated L02 cells; format: cell-based, human; conditions: Figure 6A
# Protocol: (§2) Proteins were extracted using RIPA lysate and a BCA kit for protein concentration, separated by SDS-PAGE gel electrophoresis, and transferred to PVDF membranes. The membranes were sealed with 5% skimmed milk and incubated at 4 °C overnight with primary antibodies, followed by co-incubation with the corresponding secondary antibodies. The protein bands were imaged using an infrared laser imager and quantitatively analyzed by ImageJ software. The antibodies used for Western blot were Acox1 (Abcam, ab184032), Acaa1 (Abcam, ab154091), EHHADH (Abcam, ab123490), PPARγ (Abcam, ab272718), PPARα (Abcam, ab314112), PPARδ (Abcam, ab178866), P38 (Abcam, ab31828), p-P38 (Abcam, ab195049), Bcl-2 (Abcam, ab182858), Caspase8 (Abcam, ab25901), anti-rabbit IgG (CST, 7074 S), and α-tubulin (Abcam, ab7291).
# [3] = system: PPAR signaling pathway and p38 MAPK pathway proteins; experiment: Proteomics and Western blotting of liver tissue of HFD mice (PPAR pathway, p38 MAPK and apoptosis proteins); format: in vivo
# Protocol: Proteome sequencing of liver tissue samples was performed according to the specific requirements of the protocol by Beijing Qinglian Baiao Biotechnology Co., Ltd. (Beijing, China). Mouse fecal samples were collected and frozen in liquid nitrogen and stored at −80 °C.
# as §2
# C57BL/6J male mice = experiment: HFD-induced MASH model in mice: serum and liver biochemistry, body and liver weight, histology; format: in vivo
# Protocol: All animal studies were conducted in accordance with national legislation and local guidelines at the Center for Laboratory Animals in Tianjin University of Science and Technology and approved by the Animal Ethics Committee of Tianjin University of Science and Technology (8 March 2022, Tianjin, China). The C57BL/6J male mice (6 weeks) were purchased from Henan Scribex Biotechnology Co, Ltd (Zhenzhou, China). Following a one-week period of acclimatization, the mice were fed a high-fat diet (HFD) comprising 60% fat (TP23300, Trophic Animal Feed High-Tech Co., Ltd., (Nantong, China)) and a low-fat control diet (TP23302, Trophic Animal Feed High-Tech Co., Ltd., (Nantong, China)) for 16 weeks.
# After 16 weeks of continuous feeding on a high-fat diet, key indicators were tested to determine modeling success and drug administration was initiated. The mice were randomly divided into seven groups (n = 10) according to their body weight. The groups were as follows: control group (control diet, 0.5% CMC-Na), model group (HFD, 0.5% CMC-Na), positive control group (HFD, 100 mg/kg Fenofibrate), elafibranor group (HFD, 30 mg/kg), and 3d group (HFD, 3, 10, 30 mg/kg). The experiment was conducted over a period of eight weeks.
# After fasting for 12 h, the mice were anaesthetized and blood samples were collected, as were the mice liver tissues. The ileal contents were collected and immediately frozen in liquid nitrogen and then transferred to storage at −80 °C. The blood samples were subjected to centrifugation at 3000 rpm/min for 10 min to obtain supernatant serum, which was stored at −80 °C. The liver tissues were weighed, and a portion of the liver was preserved in 4% paraformaldehyde for subsequent pathological sectioning, including staining with H&E, Masson, and Oil Red O. The remaining samples were stored at −80 °C for testing of various biochemical indices.
# The serum levels of TG, total cholesterol (TC), low-density lipoprotein cholesterol (LDL-C), […] aminotransferase (AST), ALT, and TNF-α were determined according to the instructions of the kit. The levels of glutathione (GSH) and superoxide dismutase (SOD) were measured using liver tissue homogenates. The kits were purchased from the Nanjing Jiancheng Institute of Biological Engineering (Nanjing, China).
# [4] = Pharmacokinetics of 3d in male SD rats, gavage; format: in vivo; conditions: for MRT last: read-out: MRT(0-t) (converted)
# Protocol: as §1
# [5] = male, rat, blood, SD rats, intravenous
# [6] = HFD mice liver, Western blot, Figure 7A
# [7] = HFD mice, liver tissue homogenates
# [8] = HFD-fed mice, 30 mg/kg, p < 0.05 vs. model
# [9] = male, SD, rat, blood, po, 30 mg/kg, rats, administered orally
compound,measurement,setting,value
CNc1ccc(C(=O)/C=C/c2cc(C)c(OC(C)(C)C(=O)OC(C)(C)C)c(C)c2)cc1 [3d],concentration in culture medium (stability),"[1]; DMEM, within 24 h",remained relatively constant
same,concentration in gastric fluid (stability),[1]; SGF,decreased significantly after 60 min
same,concentration in intestinal fluid (stability),"[1]; SIF, within 24 h",remained relatively constant
same,AUC(0-t),"[2]; SD rats, intravenous","108,480 ng/L*min"
same,AUC(0-∞),"[2]; SD rats, intravenous","136,923 ng/L*min"
same,AUMC(0-t),"[2]; SD rats, intravenous","11,816,712"
same,AUMC(0-∞),"[2]; SD rats, intravenous","29,781,860"
same,Cz,"[2]; SD rats, intravenous",107 ng/L
same,VRT(0-t),"[2]; SD rats, intravenous","10,194 min^2"
same,VRT(0-∞),"[2]; SD rats, intravenous","66,630 min^2"
same,Zeta,"[2]; SD rats, intravenous",0.004 min⁻¹
same,half-life,"[2]; male, rat, blood, SD rats, intravenous, read-out: T1/2",3.03 h
same,half-life,"[2]; male, rat, blood, rats, intravenous administration, read-out: half-life (converted)",3 h
same,Cmax,[2]; [5],1.09 ng/mL
same,Tmax,[2]; [5],5 min
same,MRT last,"[2]; male, rat, blood, SD rats, intravenous, read-out: MRT(0-t) (converted)",1.8 h
same,MRT inf,"[2]; male, rat, blood, SD rats, intravenous, read-out: MRT(0-∞) (converted)",3.62 h
same,AUC intravenous relative to oral administration,[2]; rats,four times greater
same,PPAR-related proteins in L02 cells,PPAR-related proteins,significantly increased
same,activation of caspase 8,[3]; [6],reversed the activation
same,expression of the anti-apoptotic protein Bcl-2,[3]; [6],significantly up-regulated
same,degree of P38 phosphorylation,"[3]; HFD mice liver, Western blot, Figure 7B",significantly reduced
same,"upregulation of Acox1, EHHADH, Acaa1","[3]; HFD mice liver, p < 0.001",2.3–3.1 fold
same,decrease in caspase-8,"[3]; HFD mice liver, p < 0.01",61%
same,increase in Bcl-2,"[3]; HFD mice liver, p < 0.01",1.8 fold
same,reduction in p-p38,"[3]; HFD mice liver, p < 0.01",54%
same,"PPAR-related proteins (PPAR α, γ, δ, Acox1, EHHADH, Acaa1) in liver tissues","[3]; HFD mice, Western blot, Figure 6B",decreasing trend of PPAR-related proteins was significantly reversed
same,liver fibrosis (Masson staining),C57BL/6J male mice; HFD mice,successfully reversed
same,"liver steatosis and lipid accumulation (HE, Oil Red O sections)",C57BL/6J male mice; HFD mice,significantly reduce the steatosis and ballooning in the liver and bring it back to normal
same,serum TNF-α levels,C57BL/6J male mice; HFD mice,reversed and returned to normal levels
same,serum levels of LDL-C,C57BL/6J male mice; HFD mice,markedly diminish
same,body weight,"C57BL/6J male mice; HFD mice, 8 weeks of treatment",no significant effect
same,serum TG levels,"C57BL/6J male mice; HFD mice, 8 weeks, fenofibrate 100 mg/kg, elafibranor 30 mg/kg, 3d 3, 10, 30 mg/kg",decreased and returned to normal levels
same,liver GSH content,C57BL/6J male mice; [7],counteracting the reduction
same,liver SOD content,C57BL/6J male mice; [7],counteracting the reduction
same,TC levels,"C57BL/6J male mice; HFD mice, 3d 3, 10, 30 mg/kg",dose-dependent reduction
same,serum ALT activity,"C57BL/6J male mice; HFD mice, 3d 3, 10, 30 mg/kg",dose-dependent reduction
same,serum AST activity,"C57BL/6J male mice; HFD mice, 3d 3, 10, 30 mg/kg",dose-dependent reduction
same,serum LDL-C decline,C57BL/6J male mice; [8],45%
same,serum TC reduction,C57BL/6J male mice; [8],32%
same,serum TG decrease,C57BL/6J male mice; [8],39%
same,serum TNF-α reduction,C57BL/6J male mice; [8],57%
same,AUC(0-t),"[4]; SD rats, gavage, 30 mg/kg","30,236 ng/L*min"
same,AUC(0-∞),"[4]; SD rats, gavage, 30 mg/kg","34,864 ng/L*min"
same,AUMC(0-t),"[4]; SD rats, gavage, 30 mg/kg","7,351,242"
same,AUMC(0-∞),"[4]; SD rats, gavage, 30 mg/kg","12,023,223"
same,Cmax,"[4]; SD rats, gavage, 30 mg/kg",0.113 ng/mL
same,Cz,"[4]; SD rats, gavage, 30 mg/kg",15 ng/L
same,Tmax,"[4]; SD rats, gavage, 30 mg/kg",2 h
same,VRT(0-t),"[4]; SD rats, gavage, 30 mg/kg","31,533 min^2"
same,VRT(0-∞),"[4]; SD rats, gavage, 30 mg/kg","107,286 min^2"
same,Zeta,"[4]; SD rats, gavage, 30 mg/kg",0.003 min⁻¹
same,Cmax,"[4]; male, SD, rat, blood, po, 30 mg/kg, SD rats, gavage, 30 mg/kg, read-out: Cmax",0.113 ng/mL
same,MRT last,"[4]; male, SD, rat, blood, po, 30 mg/kg, SD rats, gavage, 30 mg/kg",4.05 h
same,half-life,[4]; [9],3.4 h
same,MRT last,[4]; [9],4 h
same,Tmax,"[4]; male, SD, rat, blood, po, 30 mg/kg, rats, administered orally, read-out: time of peak concentration",2 h
same,bioavailability,"[4]; male, SD, rat, blood, po, rats, 30 mg/kg gavage vs tail vein injection, read-out: oral bioavailability (F)",27.9%
same,MRT inf,"[4]; male, rat, blood, po, SD rats, gavage, 30 mg/kg, read-out: MRT(0-∞) (converted)",5.73 h
